PubChem BioAssay AID2060603 (Molecular Pharmacology Branch, DTP, NCI, 2025)

Tested on: 422866-222-R5-J1-PDC spheroid viability
Assay: Anticancer human tumor 422866-222-R5-J1-PDC patient-derived pancreatic adenocarcinoma cell line growth inhibition [CLK]
Details: spheroids with HUVEC and MSC; for IC50: curve of first compound; for viability, T/C: stronger effect = lower value
How it was run: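 Multi-cell-type spheroids combined patient-derived tumor cells with HUVEC endothelial cells and human mesenchymal stem cells. Paired agents were dosed in half-log steps down from about clinical Cmax, or from 10 microM where Cmax was unknown.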
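Also: spheroids exposed to agents for seven days before readout.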

In the case of `CC(C)CC(NC(=O)C(Cc1ccccc1)NC(=O)c1cnccn1)B(O)O` (centres undefined) + CNC(=O)c1ccc(Nc2nc(OC3CCCC3)c3c(-c4ccc5nc(C)oc5c4)c[nH]c3n2)c(OC)c1, the IC50 (second compound 0.0316 µM) is reported as 5.65 nM, the IC50 (second compound 0.1 µM) is reported as 5.52 nM and the IC50 (second compound 0.316 µM) is reported as 4.54 nM. For the same compound, the IC50 (second compound 1 µM) was 4.19 nM, the IC50 (second compound 3.16 µM) was 4.29 nM and the IC50 (second compound 10 µM) was 4.12 nM. The viability, T/C (second compound 0.0316 µM, first compound 0.000949 µM) was 94%, the viability, T/C (second compound 0.0316 µM, first compound 0.003 µM) was 88.6% and the viability, T/C (second compound 0.0316 µM, first compound 0.00949 µM) was 18.5%. For the same compound, the viability, T/C (second compound 0.0316 µM, first compound 0.03 µM) was 2.14%, the viability, T/C (second compound 0.0316 µM, first compound 0.0949 µM) was 0.75% and the viability, T/C (second compound 0.0316 µM, first compound 0.3 µM) was 0.67%. The viability, T/C (second compound 0.1 µM, first compound 0.000949 µM) was 115%, the viability, T/C (second compound 0.1 µM, first compound 0.003 µM) was 90.8% and the viability, T/C (second compound 0.1 µM, first compound 0.00949 µM) was 13.8%. The viability, T/C (second compound 0.1 µM, first compound 0.03 µM) was 1.87%, the viability, T/C (second compound 0.1 µM, first compound 0.0949 µM) was 1.7% and the viability, T/C (second compound 0.1 µM, first compound 0.3 µM) was 1.33%. The viability, T/C (second compound 0.316 µM, first compound 0.000949 µM) was 108%, the viability, T/C (second compound 0.316 µM, first compound 0.003 µM) was 70.2% and the viability, T/C (second compound 0.316 µM, first compound 0.00949 µM) was 13.9%. It also gave a viability, T/C (second compound 0.316 µM, first compound 0.03 µM) of 1.54%, a viability, T/C (second compound 0.316 µM, first compound 0.0949 µM) of 0.87% and a viability, T/C (second compound 0.316 µM, first compound 0.3 µM) of 1.27%. For the same compound, the viability, T/C (second compound 1 µM, first compound 0.000949 µM) was 96.5%, the viability, T/C (second compound 1 µM, first compound 0.003 µM) was 67.8% and the viability, T/C (second compound 1 µM, first compound 0.00949 µM) was 6.77%. It also gave a viability, T/C (second compound 1 µM, first compound 0.03 µM) of 1.53%, a viability, T/C (second compound 1 µM, first compound 0.0949 µM) of 3.06% and a viability, T/C (second compound 1 µM, first compound 0.3 µM) of 2.68%. It also gave a viability, T/C (second compound 3.16 µM, first compound 0.000949 µM) of 86.8%, a viability, T/C (second compound 3.16 µM, first compound 0.003 µM) of 69.7% and a viability, T/C (second compound 3.16 µM, first compound 0.00949 µM) of 6.4%. For the same compound, the viability, T/C (second compound 3.16 µM, first compound 0.03 µM) was 1.59%, the viability, T/C (second compound 3.16 µM, first compound 0.0949 µM) was 1.4% and the viability, T/C (second compound 3.16 µM, first compound 0.3 µM) was 0.99%. The viability, T/C (second compound 10 µM, first compound 0.000949 µM) was 84.8%, the viability, T/C (second compound 10 µM, first compound 0.003 µM) was 66.5% and the viability, T/C (second compound 10 µM, first compound 0.00949 µM) was 6.65%. For the same compound, the viability, T/C (second compound 10 µM, first compound 0.03 µM) was 1.39%, the viability, T/C (second compound 10 µM, first compound 0.0949 µM) was 1.44% and the viability, T/C (second compound 10 µM, first compound 0.3 µM) was 1.32%.
With `O=C(c1cc(Cc2n[nH]c(=O)c3ccccc23)ccc1F)N1CCN(C(=O)C2CC2)CC1` + CNC(=O)c1ccc(Nc2nc(OC3CCCC3)c3c(-c4ccc5nc(C)oc5c4)c[nH]c3n2)c(OC)c1 the IC50 (second compound 0.0316 µM) was greater than 10000 nM, the IC50 (second compound 0.1 µM) was greater than 10000 nM and the IC50 (second compound 0.316 µM) was greater than 10000 nM. For the same compound, the IC50 (second compound 1 µM) was greater than 10000 nM, the IC50 (second compound 3.16 µM) was greater than 10000 nM and the IC50 (second compound 10 µM) was greater than 10000 nM. The viability, T/C (second compound 0.0316 µM, first compound 0.0316 µM) was 103%, the viability, T/C (second compound 0.0316 µM, first compound 0.1 µM) was 104% and the viability, T/C (second compound 0.0316 µM, first compound 0.316 µM) was 112%. The viability, T/C (second compound 0.0316 µM, first compound 1 µM) was 110%, the viability, T/C (second compound 0.0316 µM, first compound 3.16 µM) was 90.6% and the viability, T/C (second compound 0.0316 µM, first compound 10 µM) was 90.2%. The viability, T/C (second compound 0.1 µM, first compound 0.0316 µM) was 111%, the viability, T/C (second compound 0.1 µM, first compound 0.1 µM) was 110% and the viability, T/C (second compound 0.1 µM, first compound 0.316 µM) was 108%. The viability, T/C (second compound 0.1 µM, first compound 1 µM) was 110%, the viability, T/C (second compound 0.1 µM, first compound 3.16 µM) was 91.9% and the viability, T/C (second compound 0.1 µM, first compound 10 µM) was 72%. The viability, T/C (second compound 0.316 µM, first compound 0.0316 µM) was 85.2%, the viability, T/C (second compound 0.316 µM, first compound 0.1 µM) was 84.7% and the viability, T/C (second compound 0.316 µM, first compound 0.316 µM) was 77.2%. The viability, T/C (second compound 0.316 µM, first compound 1 µM) was 71.2%, the viability, T/C (second compound 0.316 µM, first compound 3.16 µM) was 76.1% and the viability, T/C (second compound 0.316 µM, first compound 10 µM) was 60.6%. It also gave a viability, T/C (second compound 1 µM, first compound 0.0316 µM) of 71.3%, a viability, T/C (second compound 1 µM, first compound 0.1 µM) of 63.9% and a viability, T/C (second compound 1 µM, first compound 0.316 µM) of 64%. The viability, T/C (second compound 1 µM, first compound 1 µM) was 52.1%, the viability, T/C (second compound 1 µM, first compound 3.16 µM) was 71.3% and the viability, T/C (second compound 1 µM, first compound 10 µM) was 65.7%. For the same compound, the viability, T/C (second compound 3.16 µM, first compound 0.0316 µM) was 68%, the viability, T/C (second compound 3.16 µM, first compound 0.1 µM) was 85.8% and the viability, T/C (second compound 3.16 µM, first compound 0.316 µM) was 68.1%. It also gave a viability, T/C (second compound 3.16 µM, first compound 1 µM) of 66.9%, a viability, T/C (second compound 3.16 µM, first compound 3.16 µM) of 57.8% and a viability, T/C (second compound 3.16 µM, first compound 10 µM) of 59.2%. It also gave a viability, T/C (second compound 10 µM, first compound 0.0316 µM) of 66.1%, a viability, T/C (second compound 10 µM, first compound 0.1 µM) of 75.8% and a viability, T/C (second compound 10 µM, first compound 0.316 µM) of 58.3%. It also gave a viability, T/C (second compound 10 µM, first compound 1 µM) of 62.1%, a viability, T/C (second compound 10 µM, first compound 3.16 µM) of 62.4% and a viability, T/C (second compound 10 µM, first compound 10 µM) of 51.8%.
